According to US8361971B2, “Tablet formulation of ezatiostat” (Telik, Inc., priority 2010, dated 2013):

Test: Assay and impurities by HPLC of tablets on storage
Type: physicochemical
Details: Total impurities of Tables 5-7
Source text: As used herein, “impurity” refers to one or more of: TLK 236, another polymorphic form of ezatiostat hydrochloride including without limitation form A, B, C, E, or F, and any other compound other than ezatiostat hydrochloride ansolvate, which may be identified by HPLC. TLK 236 is a monoester derived from the partial hydrolysis of ezatiostat where the phenyl glycine moiety remains esterified.
As described above, form E converts to form B simply during tableting.
Tablets of ansolvate form D, were packaged with and without desiccant (Sorb-It Cannister, 1 gram). Fifty tablets were packaged in a round, white 1500 mL bottle with a screw cap over an induction seal. Impurities were assayed by HPLC. When stored at 25° C./60% RH with desiccant for 3 months, no increase in total impurities was observed. When stored at 40° C./75% RH with desiccant for 3 months, total impurities increased only by 0.3%. When stored at 40° C./75% RH without desiccant for 3 months, total impurities still increased by 1.1%. As tabulated below, the presence of desiccant appears to further increase the stability of the ansolvate form D. Even though the dissolution rate of tablets containing polymorph D from one batch was below specification (<70%) at an initial test as well as after 3 months at 25° C./60% RH with desiccant, the subsequent batches met the required specification.

CCOC(=O)[C@@H](N)CCC(=O)N[C@@H](CSCc1ccccc1)C(=O)N[C@@H](C(=O)OCC)c1ccccc1.Cl [Polymorphic form B, ezatiostat hydrochloride]
rate of decomposition relative to ansolvate form D: more than double the rate of decomposition of the ansolvate form D
